# Measurements reported in PubChem BioAssay (NCI).
# Several values for one entry are separate records, joined by “and”; a condition that tells them apart may be missing. Equal values may be shown once.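 Step 1: Grow cells in 96-well plates. Step 2: Expose to compound for 48 hours at 5 concentrations. Step 3: Interpolate endpoints linearly; if unreached, use highest concentration. GI50 = concentration required for 50% inhibition of growth. TGI is the concentration that stops growth completely.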
# Assays:
# Experiment in all cases: NCI anticancer screen, dose series, 48 h
# [1] = tested on: 786-0 renal
# [2] = tested on: DMS 273 small cell lung
# [3] = tested on: LXFL 529 NSCLC
# [4] = tested on: MALME-3M melanoma
# [5] = tested on: OVCAR-8 ovarian
# [6] = tested on: RPMI-8226 leukemia
# [7] = tested on: RXF 393 renal
# [8] = tested on: SNB-75 CNS
# [9] = tested on: A549 NSCLC
# [10] = tested on: MCF7 breast
Structure (SMILES),GI50 [1],TGI [1],GI50 [2],TGI [2],TGI [3],TGI [4],GI50 [5],TGI [5],TGI [6],GI50 [7],TGI [7],TGI [8],TGI [9],TGI [10],GI50 [6],GI50 [9],GI50 [4],GI50 [10],GI50 [8]
COc1cc(C2c3cc4c(cc3[C@@H](NCCN(C)C)C3COC(=O)[C@H]23)OCO4)cc(OC)c1O (some centres undefined),0.0355 µM and 0.132 µM,0.457 µM and 1.1 µM,0.0137 µM and 0.0329 µM,0.803 µM and 1.36 µM,6.9 µM and 13.2 µM,1.61 µM and 2.3 µM,0.265 µM and 1.08 µM,1.72 µM and 2.72 µM,> 100 µM and 12 µM,0.301 µM and 1.11 µM,2.08 µM and 4.37 µM,0.674 µM,,,,,,,
CC(C)/C=C1\CCC(CN(C)C)C1=O (centres undefined),,1.25 µM,,,2.85 µM,2.29 µM,,6.97 µM,2.36 µM,,1.31 µM,6.51 µM,17.2 µM,1.8 µM,,,,,
CCOc1ccccc1N=Nc1ccc2oc(=O)c(C(C)=O)cc2c1,,> 100 µM,,> 100 µM,> 100 µM,> 100 µM,,> 100 µM,> 100 µM,,,43.2 µM,> 100 µM,,,,,,
Cc1ccc(C(=O)CC2(O)C(=O)Nc3c(C)cc(Cl)cc32)cc1 (centres undefined),,> 100 µM,,> 100 µM,> 100 µM,> 100 µM,,> 100 µM,> 100 µM,,> 100 µM,> 100 µM,> 100 µM,,,,,,
O=[N+]([O-])c1ccc(C2=Nc3ccccc3S(=O)C(c3ccccc3)C2)cc1 (centres undefined),,35.1 µM,,52.5 µM,26.7 µM,> 100 µM,,> 100 µM,29.6 µM,,29 µM,53.3 µM,> 100 µM,,,,,,
Nc1ccc2n[se]nc2c1,,> 100 µM,,> 100 µM,> 100 µM,> 100 µM,,> 100 µM,> 100 µM,,> 100 µM,> 100 µM,> 100 µM,,,,,,
CN(C)CCNC(=O)c1cccc2c1nc(-c1ccc(F)cc1)c1ccccc12,,18.1 µM,,13 µM,,,,18.2 µM,,,12 µM,22.8 µM,13.8 µM,,,,,,
O=C1c2ccccc2C(=O)c2cc3c(cc21)CS(=O)C3,,> 100 µM,,> 100 µM,> 100 µM,> 100 µM,,> 100 µM,> 100 µM,,> 100 µM,> 100 µM,> 100 µM,,,,,,
N#CCCn1[nH]c(=O)c(Cl)c(Cl)c1=O,,39.6 µM,,,30.6 µM,33 µM,,32.9 µM,37.5 µM,,32.2 µM,26.7 µM,59.4 µM,,,,,,
O=S1(=O)N2CN3CN(C2)CN1C3,,179 µM,32.8 µM,> 31.6 µM and 142 µM,34.1 µM,324 µM,30.8 µM,110 µM,56.6 µM and 124 µM,,,69.2 µM,935 µM,,33.7 µM,,,,
CC(=O)C1CCN(c2ccccc2)C1 (centres undefined),,> 100 µM,,> 100 µM,,,,> 100 µM,,,> 100 µM,> 100 µM,> 100 µM,,,,,,
CCOC(=O)C(C)(NC(=O)c1ccc(NCc2ccc3nc(NC(=O)c4ccccc4)nc(NC(=O)c4ccccc4)c3c2)cc1)C(=O)OCC,,13.3 µM,,27.5 µM,,38 µM,,17.8 µM,> 100 µM,,7.92 µM,7 µM,35.2 µM,,,,,,
O=C1C(c2ccccc2)=C(c2ccccc2)C(c2ccc(Cc3ccc(C4=C(c5ccccc5)C(=O)C(c5ccccc5)=C4c4ccccc4)cc3)cc2)=C1c1ccccc1,,> 100 µM,,> 100 µM,,> 100 µM,,> 100 µM,> 100 µM,,> 100 µM,> 100 µM,> 100 µM,,,,,,
Nc1nncc2c1c(Br)cn2C1OC(CO)C(O)C1O (centres undefined),,> 100 µM,,> 100 µM,> 100 µM,> 100 µM,,,> 100 µM,,> 100 µM,> 100 µM,> 100 µM,,,,,,
O=C(c1ccc(O)cc1O)C1C(c2ccc(O)cc2)OC(c2ccc(O)cc2)C1C(=O)c1ccc(O)cc1O (centres undefined),,23.2 µM,,29.5 µM,34.7 µM,31.2 µM,,56.8 µM,,,45.5 µM,42.1 µM,> 100 µM,,,,,,
Cc1cc(=O)oc2ccc(OC/C=C3\CCC(=O)O3)cc12,2.7 µM,14.2 µM,,,,16.9 µM,10 µM,25 µM,11.2 µM,5.85 µM,21.3 µM,12.3 µM,33 µM,13.3 µM,1.81 µM,17 µM,1.16 µM,2.36 µM,1.87 µM
Cn1c(CBr)nc2c1C(=O)c1nc(CBr)[nH]c(=O)c1C2=O,,> 100 µM,,,> 100 µM,,,> 100 µM,> 100 µM,,> 100 µM,,> 100 µM,,,,,,
c1ccc(-c2oc(-c3ccccc3)c(CN3CCCCC3)c2CN2CCCCC2)cc1,2.8 µM,12.7 µM,,,,3.65 µM,3.91 µM,17.1 µM,4.08 µM,1.85 µM,5.74 µM,18.6 µM,24.8 µM,6.15 µM,1.66 µM,5.55 µM,1.75 µM,1.66 µM,4.13 µM
CN=C(N)c1ccc(N=C(N)c2ccc(-c3ccc(C(N)=Nc4ccc(C(N)=NC)cc4)cc3)cc2)cc1,> 100 µM,> 100 µM,,,,78.7 µM,52.1 µM,> 100 µM,> 100 µM,39.4 µM,> 100 µM,> 100 µM,> 100 µM,> 100 µM,46.5 µM,> 100 µM,25.5 µM,19 µM,> 100 µM
C#Cc1cccc(Nc2ncnc3cc(NC(=O)CCl)ccc23)c1,1.07 µM,5.53 µM,,,,6.65 µM,1.61 µM,6.58 µM,6.15 µM,4.03 µM,7.78 µM,5.01 µM,7.93 µM,4.73 µM,1.26 µM,3.59 µM,2.8 µM,0.961 µM,1.53 µM
COc1cc2oc(-c3cccc(C(=O)Nc4ccc(Cl)cc4)c3)cc(=O)c2c(OC)c1OC,2.53 µM,> 100 µM,,,,7.26 µM,3.44 µM,> 100 µM,3.79 µM,1.25 µM,5.09 µM,> 100 µM,> 100 µM,> 100 µM,0.49 µM,3.56 µM,2.48 µM,2.94 µM,2.66 µM
